Experimental findings from ChEMBL document CHEMBL1201862, “PubChem BioAssay data set” (2004) are described below.

Assay [1] has as its target Potassium voltage-gated channel subfamily KQT member 2 (Rattus norvegicus, UniProt O88943, W236L). The assay can be described thus: KCNQ2 channel potentiators, dose response, mechanism study for KCNQ2 potentiator project, cell-based, automated electrophysiology (AID 2603). The assay is classed as functional.
Assay [2] has as its target T1, Sentrin-specific protease 7 (Homo sapiens, UniProt Q9BQF6).
T1 sequence (Q9BQF6 whole entry): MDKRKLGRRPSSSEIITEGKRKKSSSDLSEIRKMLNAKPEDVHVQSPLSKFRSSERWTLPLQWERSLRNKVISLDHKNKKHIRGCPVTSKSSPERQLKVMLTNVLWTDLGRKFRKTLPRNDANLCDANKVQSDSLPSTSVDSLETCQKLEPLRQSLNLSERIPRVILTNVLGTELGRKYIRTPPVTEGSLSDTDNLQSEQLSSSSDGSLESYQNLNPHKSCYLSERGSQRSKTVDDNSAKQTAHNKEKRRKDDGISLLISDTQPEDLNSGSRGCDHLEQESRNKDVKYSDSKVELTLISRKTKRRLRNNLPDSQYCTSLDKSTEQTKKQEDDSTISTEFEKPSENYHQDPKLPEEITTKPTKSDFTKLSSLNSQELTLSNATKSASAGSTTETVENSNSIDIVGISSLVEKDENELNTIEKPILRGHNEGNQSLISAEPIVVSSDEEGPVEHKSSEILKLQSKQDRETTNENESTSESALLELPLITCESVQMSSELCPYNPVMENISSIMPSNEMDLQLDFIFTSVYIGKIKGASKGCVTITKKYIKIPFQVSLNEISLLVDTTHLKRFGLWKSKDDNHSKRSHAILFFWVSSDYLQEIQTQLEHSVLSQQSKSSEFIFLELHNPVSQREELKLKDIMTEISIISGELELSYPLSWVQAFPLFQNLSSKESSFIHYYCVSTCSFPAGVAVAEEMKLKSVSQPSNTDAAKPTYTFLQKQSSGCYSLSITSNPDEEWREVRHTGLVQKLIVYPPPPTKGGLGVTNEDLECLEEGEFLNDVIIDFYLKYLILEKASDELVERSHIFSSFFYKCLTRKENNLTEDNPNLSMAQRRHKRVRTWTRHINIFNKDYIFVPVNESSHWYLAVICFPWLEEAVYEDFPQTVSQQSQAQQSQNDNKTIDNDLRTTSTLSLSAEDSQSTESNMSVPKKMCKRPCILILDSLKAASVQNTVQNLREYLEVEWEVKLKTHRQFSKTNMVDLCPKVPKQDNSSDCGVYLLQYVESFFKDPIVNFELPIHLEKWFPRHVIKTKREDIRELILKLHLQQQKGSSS
The assay can be described thus: SENP7 protease inhibitors, SAR follow-up, biochemical, luminescence (AID 504497). It counts as functional.

For assay [3], the target named is T2, Caspase-3 (Homo sapiens, UniProt P42574).
T2 sequence (P42574 whole entry): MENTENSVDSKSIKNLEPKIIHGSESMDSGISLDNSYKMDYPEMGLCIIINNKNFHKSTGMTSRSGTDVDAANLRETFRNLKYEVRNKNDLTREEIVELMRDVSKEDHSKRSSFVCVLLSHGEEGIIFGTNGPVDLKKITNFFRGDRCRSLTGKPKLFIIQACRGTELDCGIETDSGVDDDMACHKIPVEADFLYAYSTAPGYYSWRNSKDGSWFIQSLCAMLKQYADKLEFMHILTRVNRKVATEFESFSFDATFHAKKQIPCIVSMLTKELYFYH
The assay can be described thus: SAR Analysis of small molecule inhibitors of Sentrin-specific proteases (SENPs) using a Caspase-3 Selectivity assay. [Related pubchem assays (depositor defined):AID2540, AID2599, AID434973, AID489001]. It counts as functional.

Assay [4] concerns the target T3, Sentrin-specific protease 8 (Homo sapiens, UniProt Q96LD8).
T3 sequence (Q96LD8 whole entry): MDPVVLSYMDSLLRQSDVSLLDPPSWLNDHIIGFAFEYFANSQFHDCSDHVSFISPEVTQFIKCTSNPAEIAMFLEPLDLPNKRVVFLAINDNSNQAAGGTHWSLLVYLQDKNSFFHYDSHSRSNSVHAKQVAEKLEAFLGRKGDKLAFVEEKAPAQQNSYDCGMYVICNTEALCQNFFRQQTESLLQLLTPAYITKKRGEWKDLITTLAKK
The assay can be described thus: SENP8 protease inhibitors, SAR follow-up, biochemical, luminescence (AID 504501). The assay is classed as functional.

Assay [5] in a line: growth suppression of beta-catenin-knockout colon cells, dose response, cell-based, HCT116, human colon tumor (AID 1045).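 Also: HCT116 colon tumor cells with beta catenin knocked out; cells exposed to compound for 60 hours.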 It counts as functional.
For assay [6], the target named is Beta-galactosidase (Escherichia coli, UniProt Q8VNN2). The assay can be described thus: beta-galactosidase enzyme inhibitors and activators, dose response, artefact control for CCR6 antagonist project, biochemical, E. coli enzyme, set 3 (AID 504712). The assay is classed as functional.
Beta-galactosidase, sequence (Q8VNN2 whole entry): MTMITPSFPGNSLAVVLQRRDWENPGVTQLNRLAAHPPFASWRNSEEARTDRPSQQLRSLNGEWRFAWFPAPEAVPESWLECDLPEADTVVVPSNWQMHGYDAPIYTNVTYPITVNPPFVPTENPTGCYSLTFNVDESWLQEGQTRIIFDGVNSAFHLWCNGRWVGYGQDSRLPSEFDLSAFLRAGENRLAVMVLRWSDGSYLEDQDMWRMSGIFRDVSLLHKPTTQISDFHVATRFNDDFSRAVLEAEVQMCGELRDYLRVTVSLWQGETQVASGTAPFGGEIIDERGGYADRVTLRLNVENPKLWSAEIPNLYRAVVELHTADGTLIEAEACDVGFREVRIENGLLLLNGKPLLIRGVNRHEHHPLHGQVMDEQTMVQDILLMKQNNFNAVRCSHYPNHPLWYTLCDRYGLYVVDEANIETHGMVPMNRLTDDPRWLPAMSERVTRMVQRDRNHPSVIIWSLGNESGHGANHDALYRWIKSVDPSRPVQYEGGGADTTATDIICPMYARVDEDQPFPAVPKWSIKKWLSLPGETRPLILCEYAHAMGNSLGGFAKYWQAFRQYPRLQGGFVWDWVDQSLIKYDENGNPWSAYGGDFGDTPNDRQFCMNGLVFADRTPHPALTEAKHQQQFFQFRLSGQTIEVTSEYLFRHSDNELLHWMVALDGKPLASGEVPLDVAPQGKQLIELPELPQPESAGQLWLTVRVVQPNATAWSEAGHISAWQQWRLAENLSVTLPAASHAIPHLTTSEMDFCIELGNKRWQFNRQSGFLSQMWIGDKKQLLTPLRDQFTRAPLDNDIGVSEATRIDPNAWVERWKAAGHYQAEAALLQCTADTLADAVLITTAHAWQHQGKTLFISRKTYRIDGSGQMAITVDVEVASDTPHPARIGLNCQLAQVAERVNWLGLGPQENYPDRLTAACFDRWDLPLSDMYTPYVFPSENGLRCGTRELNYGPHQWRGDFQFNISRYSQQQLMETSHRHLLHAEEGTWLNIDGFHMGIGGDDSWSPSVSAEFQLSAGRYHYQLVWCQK
Assay [7] addresses Neurotensin receptor type 1 (Homo sapiens, UniProt P30989). It counts as functional.
A short description of assay [8]: HepG2 cell cytotoxicity, dose response, cytotoxicity control for Shn3 inhibitor project, CellTiter-Glo, cherry-picked (AID 624134). The assay is classed as functional, cell-based. (In ATP-based viability assays light output follows the ATP content of the culture.)
Assay [9] concerns the target T4, Mannose-6-phosphate isomerase (Homo sapiens, UniProt P34949).
T4 sequence (P34949 whole entry): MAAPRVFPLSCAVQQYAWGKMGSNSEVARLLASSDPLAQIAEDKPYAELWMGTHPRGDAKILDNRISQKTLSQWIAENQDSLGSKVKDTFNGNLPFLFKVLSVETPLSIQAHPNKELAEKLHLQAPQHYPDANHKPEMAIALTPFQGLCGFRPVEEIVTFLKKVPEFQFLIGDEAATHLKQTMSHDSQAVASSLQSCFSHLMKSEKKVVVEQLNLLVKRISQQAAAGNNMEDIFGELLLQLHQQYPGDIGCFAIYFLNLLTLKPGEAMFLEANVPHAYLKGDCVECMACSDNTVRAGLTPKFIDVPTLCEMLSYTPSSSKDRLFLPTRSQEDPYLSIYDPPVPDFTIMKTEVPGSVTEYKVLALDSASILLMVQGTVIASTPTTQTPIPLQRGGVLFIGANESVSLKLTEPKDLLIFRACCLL
The assay can be described thus: human PMI inhibitors, high substrate, primary screen, biochemical, fluorescence intensity, high mannose 6-phosphate (AID 1220).

Assay [10] concerns the target RNA-editing ligase 1, mitochondrial (Trypanosoma brucei brucei, UniProt P86926). The assay can be described thus: TbREL1 ligase inhibitors, dose response, biochemical, fluorescence, Trypanosoma brucei (AID 1117295). The assay is classed as functional.

Activity calls are given as the source filed them. Bounds are passed on as bounds.

RNA-editing ligase 1, mitochondrial, sequence (P86926 whole entry): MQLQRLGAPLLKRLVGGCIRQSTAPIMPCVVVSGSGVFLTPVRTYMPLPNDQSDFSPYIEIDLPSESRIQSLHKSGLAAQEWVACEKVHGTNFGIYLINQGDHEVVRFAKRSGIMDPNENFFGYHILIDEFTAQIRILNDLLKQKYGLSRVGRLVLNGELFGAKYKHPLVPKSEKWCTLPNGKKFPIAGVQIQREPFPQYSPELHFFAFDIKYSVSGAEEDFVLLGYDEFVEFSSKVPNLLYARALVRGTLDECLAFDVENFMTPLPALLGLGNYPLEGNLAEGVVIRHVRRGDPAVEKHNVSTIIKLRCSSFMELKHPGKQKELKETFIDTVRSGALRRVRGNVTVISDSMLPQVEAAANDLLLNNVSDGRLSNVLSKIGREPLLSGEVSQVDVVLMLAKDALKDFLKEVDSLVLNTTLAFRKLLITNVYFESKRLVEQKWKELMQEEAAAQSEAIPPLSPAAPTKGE
Potassium voltage-gated channel subfamily KQT member 2, sequence (O88943 whole entry W236L): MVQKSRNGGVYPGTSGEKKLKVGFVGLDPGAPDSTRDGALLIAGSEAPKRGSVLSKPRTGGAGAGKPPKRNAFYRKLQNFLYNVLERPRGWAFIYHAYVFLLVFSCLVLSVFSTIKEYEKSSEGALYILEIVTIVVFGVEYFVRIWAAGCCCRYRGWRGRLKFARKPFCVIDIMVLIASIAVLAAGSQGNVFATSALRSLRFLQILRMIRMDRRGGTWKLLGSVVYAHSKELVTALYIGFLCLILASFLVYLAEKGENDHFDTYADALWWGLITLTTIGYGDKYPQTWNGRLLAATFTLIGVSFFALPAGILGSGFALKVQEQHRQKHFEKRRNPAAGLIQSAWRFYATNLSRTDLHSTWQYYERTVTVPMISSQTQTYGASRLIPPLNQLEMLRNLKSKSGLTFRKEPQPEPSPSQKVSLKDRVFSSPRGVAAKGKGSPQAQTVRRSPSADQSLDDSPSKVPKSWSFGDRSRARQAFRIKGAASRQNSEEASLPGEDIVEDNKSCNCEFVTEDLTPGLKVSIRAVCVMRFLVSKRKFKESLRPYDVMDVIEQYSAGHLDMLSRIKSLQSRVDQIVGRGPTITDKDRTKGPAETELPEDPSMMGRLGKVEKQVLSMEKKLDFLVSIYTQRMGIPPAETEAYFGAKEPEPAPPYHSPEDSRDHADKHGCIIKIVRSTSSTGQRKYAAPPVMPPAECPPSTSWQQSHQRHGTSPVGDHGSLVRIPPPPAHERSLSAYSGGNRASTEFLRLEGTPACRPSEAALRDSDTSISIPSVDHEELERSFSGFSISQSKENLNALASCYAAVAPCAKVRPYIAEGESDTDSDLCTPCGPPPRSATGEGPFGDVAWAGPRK
Neurotensin receptor type 1, sequence (P30989 whole entry): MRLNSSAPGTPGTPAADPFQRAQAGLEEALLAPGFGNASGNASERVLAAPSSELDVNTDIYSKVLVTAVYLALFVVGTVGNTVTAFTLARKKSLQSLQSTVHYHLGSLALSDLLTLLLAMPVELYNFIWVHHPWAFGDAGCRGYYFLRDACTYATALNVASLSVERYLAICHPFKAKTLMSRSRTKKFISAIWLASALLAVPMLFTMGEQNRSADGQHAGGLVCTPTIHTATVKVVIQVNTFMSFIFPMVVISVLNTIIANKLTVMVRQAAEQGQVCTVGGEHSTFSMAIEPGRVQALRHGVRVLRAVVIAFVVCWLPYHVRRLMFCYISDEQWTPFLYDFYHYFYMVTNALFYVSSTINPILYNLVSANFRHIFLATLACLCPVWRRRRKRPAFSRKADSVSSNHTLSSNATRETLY

`Cc1ccccc1NC1=C/C(=N\S(=O)(=O)c2ccc(C(=O)O)cc2)c2ccccc2C1=O`: the EC50 (commonly the concentration at which the effect is half-maximal) in assay [1] is 9.51 µM (active).
For `O=C(Nc1ccc(C#Cc2ccccc2)cc1)C1CC1`, the figures for the IC50 in [2], in assay [3] and in [4] were 3.28 µM (active), 19.7 µM (active) and > 99 µM (inactive), respectively.
For the compound `Cc1ccc(NC2=C/C(=N/S(=O)(=O)c3cccs3)c3ccccc3C2=O)cc1`, the 50% effective concentration (EC50) in assay [5] is 2.82 µM (active). For the same compound, in assay [6], the IC50 (commonly the concentration that gives 50% inhibition) was 50.8 µM (inactive).
Turning to `COC(=O)C[C@]1(C(=O)OC)CN(C#N)N(c2ccc(Cl)cc2)C12c1ccccc1-c1ccccc12`, the EC50 in assay [7] was 3.27 µM (active). Further, the AC50 – broadly, the concentration at which the activity in the assay is half-maximal – in [8] was 4.76 µM (active).
As to `CCCCn1c(NC(=O)c2ccco2)c(C(=O)OCC)c2nc3ccccc3nc21`, the half-maximal inhibitory concentration (IC50) was > 50 µM (not active) in assay [9] and 21.8 µM (inactive) in assay [10].
